Results: publication PMC4664966, “Discovery and characterization of novel inhibitors of the sodium-coupled citrate transporter (NaCT or SLC13A5)” (Scientific Reports, 2015)

Key:
NaDC1 (SLC13A2) = target: T1, NaDC1 (SLC13A2) (Homo sapiens, UniProt Q13183); assay: Inhibition of citrate or succinate uptake in HEKNaDC1 cells; type: cell-based
T1 construct: host or cells: HEK-293, transient (Fugene HD)
T1 sequence (Q13183 1-592): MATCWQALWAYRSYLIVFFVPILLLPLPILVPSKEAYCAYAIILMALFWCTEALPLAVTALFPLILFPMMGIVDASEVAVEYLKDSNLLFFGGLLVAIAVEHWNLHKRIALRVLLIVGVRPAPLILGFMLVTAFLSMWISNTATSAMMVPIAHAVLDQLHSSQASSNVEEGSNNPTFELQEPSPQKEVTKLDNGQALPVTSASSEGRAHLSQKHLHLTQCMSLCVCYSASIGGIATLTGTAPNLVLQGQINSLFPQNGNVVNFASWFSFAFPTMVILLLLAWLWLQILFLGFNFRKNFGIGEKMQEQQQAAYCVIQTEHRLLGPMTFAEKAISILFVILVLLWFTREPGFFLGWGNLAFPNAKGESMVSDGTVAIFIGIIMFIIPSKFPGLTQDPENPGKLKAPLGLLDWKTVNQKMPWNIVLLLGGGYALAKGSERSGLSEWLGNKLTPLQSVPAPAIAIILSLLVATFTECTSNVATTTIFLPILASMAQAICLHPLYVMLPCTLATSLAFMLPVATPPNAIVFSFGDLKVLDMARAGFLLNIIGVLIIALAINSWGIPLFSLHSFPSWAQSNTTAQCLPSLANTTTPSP
Text: (§1) Protocols to generate the stable cell line overexpressing NaCT or cell transfection with SLC13A2 or SLC13A3 can be found in the supporting information. HEK-293 cells stably transfected with the human sodium Citrate transporter SLC13A5 or transiently transfected with the human SLC13A2 or SLC13A3 transporter were removed from the flasks with dissociation buffer and re-suspended in an equal volume of growth media (DMEM, High Glucose supplemented with 10% heat inactivated fetal bovine serum and 500 μg/ml Geneticin). For the transient transfections, Geneticin was eliminated from the media. Cell suspensions were centrifuged at 1,000 rpm for approximately 5 minutes. Resulting cell pellets were re-suspended in growth media and placed in a 37 °C water bath for approximately 10 minutes prior to a final spin at 1,000 rpm. Following this spin the resulting cell pellets were re-suspended in assay buffer, 142 mM NaCl (or 142 mM choline chloride), 5 mM KCl, 1.2 mM MgSO4, 1.5 mM CaCl, 5 mM glucose and 25 mM HEPES pH 7.4. Cell suspensions were counted and the concentration adjusted as needed with assay buffer to 2e[6] viable cells /mL. 20 μL of cell suspension were added to 384-well cyotstar-T plates followed by the addition of 5 μL of 10× concentration of compound. Cells and compound were incubated at 37 °C for approximately 30 minutes prior to the addition of 25 μL of 300 μM citric acid (16 μM radiolabeled [^14C]-citric acid and 284 μM cold citric acid) to make a 150 μM final concentration of citric acid or 21 μM [^14C]-succinic acid. After substrate addition, the uptake of radioactivity was monitored on Perkin Elmer Microbeta plate reader. Data from reads between 45–90 minutes was used to assess the ability of test compounds to inhibit the uptake of citric or succinic acid. […]
(§2) were plated, and incubated for 48 hours. Following the incubation, NaDC1 and NaDC3 assays were executed identical to the procedure for NaCT. […]
(§3) The solution was heated to reflux until the total volume was reduced to ~25 mL. […]

NaDC3 (SLC13A3) = target: T2, NaDC3 (SLC13A3) (Homo sapiens, UniProt Q8WWT9); assay: Inhibition of citrate or succinate uptake in HEKNaDC3 cells; type: cell-based
T2 construct: host or cells: HEK-293, transient (Fugene HD)
T2 sequence (Q8WWT9 1-602): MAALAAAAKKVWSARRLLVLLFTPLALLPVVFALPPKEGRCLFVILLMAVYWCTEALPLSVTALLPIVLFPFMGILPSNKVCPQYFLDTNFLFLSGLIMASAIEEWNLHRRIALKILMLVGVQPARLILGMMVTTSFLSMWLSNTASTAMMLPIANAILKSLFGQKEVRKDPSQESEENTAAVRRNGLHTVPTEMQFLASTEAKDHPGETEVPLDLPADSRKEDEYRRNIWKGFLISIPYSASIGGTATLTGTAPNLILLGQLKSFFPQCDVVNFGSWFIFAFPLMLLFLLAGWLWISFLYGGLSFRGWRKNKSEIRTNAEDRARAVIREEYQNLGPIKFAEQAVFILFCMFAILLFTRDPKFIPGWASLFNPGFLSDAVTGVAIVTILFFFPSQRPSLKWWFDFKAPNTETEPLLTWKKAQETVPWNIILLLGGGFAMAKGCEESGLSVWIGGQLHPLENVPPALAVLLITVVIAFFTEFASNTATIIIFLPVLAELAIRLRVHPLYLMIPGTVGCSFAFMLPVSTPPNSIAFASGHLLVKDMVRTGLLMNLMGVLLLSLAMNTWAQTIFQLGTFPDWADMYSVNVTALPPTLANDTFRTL
Text: as §1, §2, §3

HEK-293 parental cells = assay: Intracellular concentration of compound in HEK-293 parental cells; type: in vitro ADME, human; settings: 1 hour incubation; data not shown
[1] = target: Choline transporter (CHT1) (SLC5A7) (Homo sapiens, UniProt Q9GZV3); assay: Selectivity data (Table S1)
[2] = target: Dopamine transporter, sodium-dependent (DAT) (Homo sapiens, UniProt Q01959); assay: Selectivity data (Table S1)
[3] = target: Serotonin transporter, sodium-dependent (5-HTT) (Homo sapiens, UniProt P31645); assay: Selectivity data (Table S1)
[4] = target: Sodium channel, neuronal alpha-subunit (NaV1.1) (Homo sapiens, UniProt P35498); assay: Selectivity data (Table S1)
[5] = target: Adrenergic receptor, beta-1 (ADRB1) (Homo sapiens, UniProt P08588); assay: Selectivity data (Table S1); type: binding
Dopamine receptor 1 (D1) = Dopamine receptor 1 (D1) (Homo sapiens, UniProt P21728); assay: Selectivity data (Table S1); type: binding
[6] = target: Epidermal growth factor receptor (EGFR) (Homo sapiens, UniProt P00533); assay: Selectivity data (Table S1); type: binding
[7] = target: Vascular endothelial growth factor receptor 2 (VEGFR-2) (Homo sapiens, UniProt P35968); assay: Selectivity data (Table S1); type: binding
[8] = compound 4: mean of 2 replicates

Sequence of Dopamine receptor 1 (D1) (P21728 whole entry): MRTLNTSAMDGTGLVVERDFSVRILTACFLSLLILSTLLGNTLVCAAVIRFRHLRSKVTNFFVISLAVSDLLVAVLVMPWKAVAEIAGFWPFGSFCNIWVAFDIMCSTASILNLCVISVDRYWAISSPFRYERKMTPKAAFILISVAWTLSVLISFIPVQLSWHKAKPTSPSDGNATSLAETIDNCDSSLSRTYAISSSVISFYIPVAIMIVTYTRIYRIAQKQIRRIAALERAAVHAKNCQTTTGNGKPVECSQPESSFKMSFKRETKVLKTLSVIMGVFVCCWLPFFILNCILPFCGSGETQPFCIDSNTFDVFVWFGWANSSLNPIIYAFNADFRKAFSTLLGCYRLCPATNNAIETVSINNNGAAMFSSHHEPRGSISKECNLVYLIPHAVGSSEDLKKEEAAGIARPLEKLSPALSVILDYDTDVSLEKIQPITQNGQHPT
Sequence of Serotonin transporter, sodium-dependent (5-HTT) (P31645 whole entry): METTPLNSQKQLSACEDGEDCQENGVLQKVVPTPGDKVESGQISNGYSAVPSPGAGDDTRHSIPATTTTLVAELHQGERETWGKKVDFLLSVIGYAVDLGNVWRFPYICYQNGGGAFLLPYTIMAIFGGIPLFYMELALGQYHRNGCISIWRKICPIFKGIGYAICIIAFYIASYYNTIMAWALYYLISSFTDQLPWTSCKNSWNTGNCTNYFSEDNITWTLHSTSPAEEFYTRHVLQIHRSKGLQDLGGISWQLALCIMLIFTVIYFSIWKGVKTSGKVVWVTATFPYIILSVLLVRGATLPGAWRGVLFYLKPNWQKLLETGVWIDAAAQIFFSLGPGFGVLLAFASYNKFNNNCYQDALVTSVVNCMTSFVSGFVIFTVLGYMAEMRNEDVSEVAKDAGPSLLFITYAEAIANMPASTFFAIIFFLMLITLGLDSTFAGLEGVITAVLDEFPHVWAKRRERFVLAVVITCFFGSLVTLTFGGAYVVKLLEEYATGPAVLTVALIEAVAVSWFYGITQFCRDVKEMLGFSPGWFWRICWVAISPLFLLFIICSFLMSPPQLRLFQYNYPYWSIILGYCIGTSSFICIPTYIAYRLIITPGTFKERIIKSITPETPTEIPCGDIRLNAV
Sequence of Adrenergic receptor, beta-1 (ADRB1) (P08588 whole entry): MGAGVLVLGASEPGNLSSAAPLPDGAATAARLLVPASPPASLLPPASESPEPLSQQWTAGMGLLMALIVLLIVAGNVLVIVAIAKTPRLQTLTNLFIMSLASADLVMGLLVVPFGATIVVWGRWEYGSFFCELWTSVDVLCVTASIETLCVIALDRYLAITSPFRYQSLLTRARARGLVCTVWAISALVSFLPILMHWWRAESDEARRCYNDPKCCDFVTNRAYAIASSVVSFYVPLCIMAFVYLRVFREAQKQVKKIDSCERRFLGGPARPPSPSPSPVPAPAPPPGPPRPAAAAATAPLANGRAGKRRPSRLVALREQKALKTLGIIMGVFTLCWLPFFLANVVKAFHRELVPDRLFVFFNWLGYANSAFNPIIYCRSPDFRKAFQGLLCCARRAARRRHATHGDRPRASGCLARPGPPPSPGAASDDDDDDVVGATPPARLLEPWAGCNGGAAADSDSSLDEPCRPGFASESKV
Sequence of Dopamine transporter, sodium-dependent (DAT) (Q01959 whole entry): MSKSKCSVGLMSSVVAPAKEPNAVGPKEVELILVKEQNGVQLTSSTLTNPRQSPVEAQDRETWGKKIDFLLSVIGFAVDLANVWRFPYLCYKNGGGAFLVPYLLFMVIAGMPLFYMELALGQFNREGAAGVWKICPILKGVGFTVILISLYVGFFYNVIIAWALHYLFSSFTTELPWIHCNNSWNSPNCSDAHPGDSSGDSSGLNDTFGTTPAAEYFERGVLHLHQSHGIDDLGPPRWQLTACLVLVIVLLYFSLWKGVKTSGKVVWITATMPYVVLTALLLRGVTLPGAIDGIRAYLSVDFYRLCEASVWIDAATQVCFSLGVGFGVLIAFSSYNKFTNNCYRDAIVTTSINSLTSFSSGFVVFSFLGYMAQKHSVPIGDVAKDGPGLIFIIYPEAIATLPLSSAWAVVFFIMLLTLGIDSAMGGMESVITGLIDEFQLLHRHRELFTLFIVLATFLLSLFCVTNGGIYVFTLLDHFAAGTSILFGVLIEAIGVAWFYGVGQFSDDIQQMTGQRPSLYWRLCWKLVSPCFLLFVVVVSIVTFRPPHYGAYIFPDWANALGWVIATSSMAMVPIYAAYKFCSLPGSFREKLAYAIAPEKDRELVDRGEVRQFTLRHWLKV
Sequence of Epidermal growth factor receptor (EGFR) (P00533 25-1210): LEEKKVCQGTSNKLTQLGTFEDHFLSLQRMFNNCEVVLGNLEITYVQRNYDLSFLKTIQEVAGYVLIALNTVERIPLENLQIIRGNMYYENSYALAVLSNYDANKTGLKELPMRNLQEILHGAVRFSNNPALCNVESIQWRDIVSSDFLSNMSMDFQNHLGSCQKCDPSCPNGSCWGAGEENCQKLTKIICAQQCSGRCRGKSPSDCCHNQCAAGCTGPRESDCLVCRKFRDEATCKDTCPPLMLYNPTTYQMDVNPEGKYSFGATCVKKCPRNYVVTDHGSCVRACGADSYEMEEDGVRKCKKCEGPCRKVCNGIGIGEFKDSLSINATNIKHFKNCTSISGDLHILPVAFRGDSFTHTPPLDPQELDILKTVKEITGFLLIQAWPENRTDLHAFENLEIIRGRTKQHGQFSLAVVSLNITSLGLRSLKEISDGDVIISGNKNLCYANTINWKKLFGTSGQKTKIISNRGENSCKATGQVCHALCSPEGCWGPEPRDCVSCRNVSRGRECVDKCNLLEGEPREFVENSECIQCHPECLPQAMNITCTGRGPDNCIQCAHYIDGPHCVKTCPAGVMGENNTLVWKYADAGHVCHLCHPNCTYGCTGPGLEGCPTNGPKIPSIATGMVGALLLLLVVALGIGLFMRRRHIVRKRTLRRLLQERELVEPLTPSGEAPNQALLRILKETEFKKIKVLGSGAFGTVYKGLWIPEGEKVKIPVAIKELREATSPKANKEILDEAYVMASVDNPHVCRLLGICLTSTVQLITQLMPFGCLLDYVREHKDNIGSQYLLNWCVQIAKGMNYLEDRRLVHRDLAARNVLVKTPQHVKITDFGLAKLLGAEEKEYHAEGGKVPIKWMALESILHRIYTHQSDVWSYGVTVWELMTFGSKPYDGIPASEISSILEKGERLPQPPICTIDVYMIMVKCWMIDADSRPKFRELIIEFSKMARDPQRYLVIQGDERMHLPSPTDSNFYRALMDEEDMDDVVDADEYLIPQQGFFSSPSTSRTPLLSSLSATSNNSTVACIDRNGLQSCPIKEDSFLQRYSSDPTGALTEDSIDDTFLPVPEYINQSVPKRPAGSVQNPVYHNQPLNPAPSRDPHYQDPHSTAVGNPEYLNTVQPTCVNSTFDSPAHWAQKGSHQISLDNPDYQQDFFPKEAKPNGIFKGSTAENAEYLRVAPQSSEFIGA
Sequence of Vascular endothelial growth factor receptor 2 (VEGFR-2) (P35968 20-1356): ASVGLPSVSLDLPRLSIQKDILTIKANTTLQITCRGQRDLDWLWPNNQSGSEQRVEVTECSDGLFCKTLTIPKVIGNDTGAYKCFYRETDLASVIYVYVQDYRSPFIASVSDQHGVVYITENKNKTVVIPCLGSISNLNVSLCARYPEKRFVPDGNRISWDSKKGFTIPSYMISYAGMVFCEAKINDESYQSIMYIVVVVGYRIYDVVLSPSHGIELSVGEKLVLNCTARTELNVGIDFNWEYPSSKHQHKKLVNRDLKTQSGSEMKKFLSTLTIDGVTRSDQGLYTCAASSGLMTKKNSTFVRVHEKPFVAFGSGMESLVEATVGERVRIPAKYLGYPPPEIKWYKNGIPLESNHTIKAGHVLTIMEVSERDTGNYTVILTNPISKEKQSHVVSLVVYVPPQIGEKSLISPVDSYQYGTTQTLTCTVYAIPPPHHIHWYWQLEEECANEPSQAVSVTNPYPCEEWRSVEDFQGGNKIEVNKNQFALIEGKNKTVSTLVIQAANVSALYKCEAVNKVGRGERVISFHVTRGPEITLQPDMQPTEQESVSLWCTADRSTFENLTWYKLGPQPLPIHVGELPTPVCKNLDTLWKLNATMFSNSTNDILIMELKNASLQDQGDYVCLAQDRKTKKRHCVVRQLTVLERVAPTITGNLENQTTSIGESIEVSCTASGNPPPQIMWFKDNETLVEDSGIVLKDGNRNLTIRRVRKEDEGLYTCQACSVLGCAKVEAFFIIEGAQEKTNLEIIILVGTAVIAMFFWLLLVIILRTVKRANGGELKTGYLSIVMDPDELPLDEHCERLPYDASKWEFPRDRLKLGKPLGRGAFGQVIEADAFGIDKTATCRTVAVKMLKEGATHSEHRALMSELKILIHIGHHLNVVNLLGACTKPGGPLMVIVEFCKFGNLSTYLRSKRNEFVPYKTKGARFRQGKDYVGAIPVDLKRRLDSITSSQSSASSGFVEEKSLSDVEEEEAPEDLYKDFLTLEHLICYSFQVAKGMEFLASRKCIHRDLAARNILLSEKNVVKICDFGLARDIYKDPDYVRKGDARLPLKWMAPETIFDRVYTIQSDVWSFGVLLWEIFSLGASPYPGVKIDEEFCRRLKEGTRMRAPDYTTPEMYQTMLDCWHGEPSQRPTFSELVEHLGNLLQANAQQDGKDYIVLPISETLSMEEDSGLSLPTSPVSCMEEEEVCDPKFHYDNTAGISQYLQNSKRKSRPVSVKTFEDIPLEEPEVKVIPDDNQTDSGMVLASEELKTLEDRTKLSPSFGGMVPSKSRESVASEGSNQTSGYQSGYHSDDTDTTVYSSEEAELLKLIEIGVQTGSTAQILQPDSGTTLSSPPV

## CC(C)(C)c1ccc(CC[C@@](O)(CC(=O)O)C(=O)O)cc1 [Compound 2]
NaDC1 (SLC13A2); HEK-293-derived system overexpressing NaDC1
  inhibition of citrate or succinate uptake, NaDC1: No measurable inhibition
NaDC1 (SLC13A2); [8]
  IC50: > 100 µM
NaDC3 (SLC13A3); HEK-293-derived system overexpressing NaDC3
  inhibition of citrate or succinate uptake, NaDC3: No measurable inhibition
NaDC3 (SLC13A3); [8]
  IC50: > 100 µM
HEK-293 parental cells
  intracellular level in HEK-293 parental cells: not detected at significant levels
[1]
  inhibition at 100 µM: < 10%
[2]
  inhibition at 100 µM: < 10%
[3]
  inhibition at 100 µM: < 10%
[4]
  inhibition at 10 µM: < 10%
[5]
  inhibition at 100 µM: < 10%
Dopamine receptor 1 (D1)
  inhibition at 100 µM: < 10%
[6]
  inhibition at 100 µM: < 10%
[7]
  inhibition at 100 µM: < 10%
